Publication PMC8698377, “In Vitro Hepatic Assessment of Cineole and Its Derivatives in Common Brushtail Possums (Trichosurus vulpecula) and Rodents” (Biology, 2021)

What was measured:
CYP3A [1] = test: CYP3A catalytic activity (erythromycin-N-demethylation), mouse hepatic microsomes; format: in vitro ADME; conditions: for activity at 30 min, 12.5 µM / activity at 30 min, 25 µM: liver microsomes, pH 7.4, probe erythromycin, read-out: CYP3A catalytic activity, % of Control
Protocol: (§1) Microsomal preparation was as previously outlined. Individual livers were placed in beakers containing 1.15% KCl. All the procedures were carried out at 0–4 °C. The liver samples were minced and homogenised in buffer A (0.1 M Tris, 0.1 M potassium chloride, 1 mM EDTA, and 20 μM butylated hydroxytoluene, at pH = 7.4) using the Teflon-glass homogeniser (5–6 vertical passes). The samples were centrifuged for 20 min at 10,000× g. The supernatant was then transferred into another set of centrifuge tubes and spun for 60 min at 100,000× g. The pellet was resuspended in Buffer B (0.1 M potassium pyrophosphate, 1 mM EDTA, and 20 μM butylated hydroxytoluene, at pH = 7.4), homogenised and recentrifuged for 60 min at 100,000× g. Finally, the pellet was homogenised in 1–2 mL of Buffer C (10 mM Tris-HCl, 1 mM EDTA, and 4% glycerol (v/v)) and stored at […] until used. The protein concentration of the microsomes was determined using the Bicinchoninic acid (BCA) method.
(§2) CYP3A catalytic activity was determined using the erythromycin-N-demethylation activity assay as described previously. The reaction mixture (final volume of 1 mL and final protein concentration of 1 mg) contained 500 µL of microsomes in 0.1 M phosphate buffer (pH = 7.4), 400 µL of erythromycin buffer (0.45 mM), and 50 µL of the test compound was pre-warmed at 37 °C for 2 min. The reaction was initiated with 50 µL of 2.5 mM […] and incubated at 37 °C for 30 min (optimised incubation time). The reaction was stopped with the addition of 330 µL of 15% zinc sulphate. Tubes were vortexed and left for 5 min (at room temperature) and then 330 µL of saturated barium hydroxide was added. Tubes were further vortexed and left for 5 min (at room temperature). Tubes were then centrifuged at 1800 g for 10 min. To 830 µL of the supernatant, 330 µL of Nash reagent (30% (w/v) ammonium acetate, 0.4% (v/v) acetyl acetone) was added and further incubated at 60 °C for 30 min. The blank tube contained 330 µL of Nash reagent and 830 µL of Milli-Q-water. The tubes were centrifuged again at 1800× g for 10 min and the absorbance was read at 415 nm. Results presented are the mean ± SEM of 3 independent experiments conducted in duplicate.

CYP3A [2] = test: CYP3A catalytic activity (erythromycin-N-demethylation), rat hepatic microsomes; format: in vitro ADME; conditions: for activity at 30 min, 12.5 µM / activity at 30 min, 25 µM: liver microsomes, pH 7.4, probe erythromycin, read-out: CYP3A catalytic activity, % of Control
Protocol: as §1, §2

CYP3A [3] = test: CYP3A catalytic activity (erythromycin-N-demethylation), possum hepatic microsomes; format: in vitro ADME, possum (Trichosurus vulpecula); conditions: for activity at 30 min, 12.5 µM / activity at 30 min, 25 µM: possum (Trichosurus vulpecula), liver microsomes, pH 7.4, probe erythromycin, read-out: CYP3A catalytic activity, % of Control
Protocol: as §1, §2

UGT [4] = test: p-nitrophenol glucuronidation, mouse hepatic microsomes; format: in vitro ADME
Protocol: as §1
(§3) The rate of p-nitrophenol glucuronidation was determined as previously reported. In short, the incubation mixture (500 µL in total) contained; 100 µL of 1 mg/mL microsomes, 50 µL of 1 M Tris-HCl (pH = 7.4), 20 µL of 0.25% (v/v) Triton-X 100, 50 µL of 50 mM MgCl2, 130 µL of double distilled water, 50 µL of 5 mM p-nitrophenol, 50 µL of the test compound, and 50 µL of uridine 5′-diphosphoglucuronic acid trisodium salt (UDPGA). The blank tubes had all components except UDPGA and microsomes; instead, 150 µL of 0.1 M phosphate buffer was added to equal the volume as the reaction mixture. The reaction mixture and the blank were incubated at 37 °C for 2 min. Then, 50 µL of 30 mM UDPGA was added to initiate the reaction which proceeded at 37 °C for 30 min (optimised incubation time). The reaction was stopped using 1 mL of 5% trichloroacetic acid (TCA). The tubes were centrifuged at 1800 g for 10 min and then 1 mL of supernatant was added to 250 µL of 2 M sodium hydroxide (NaOH). The absorbance was read at 405 nm. The sample reading was subtracted from the blank absorbance and divided by the extinction coefficient of p-nitrophenol ([…]) and the light path of the spectrophotometer (1 cm). The glucuronidation activities are expressed in µmol/mg/min and are the mean ± SEM of 3 independent experiments conducted in duplicate.

UGT [5] = test: p-nitrophenol glucuronidation, rat hepatic microsomes; format: in vitro ADME
Protocol: as §1, §3

UGT [6] = test: p-nitrophenol glucuronidation, possum hepatic microsomes; format: in vitro ADME, possum (Trichosurus vulpecula)
Protocol: as §1, §3

Compound	CYP3A catalytic activity (CYP3A [1]; 12.5 µM) [nmol/mg/min]	CYP3A catalytic activity (CYP3A [1]; 25 µM) [nmol/mg/min]	activity at 30 min, 12.5 µM (CYP3A [1]; 12.5 µM) [%]	activity at 30 min, 25 µM (CYP3A [1]; 25 µM) [%]	CYP3A catalytic activity (CYP3A [2]; 12.5 µM) [nmol/mg/min]	CYP3A catalytic activity (CYP3A [2]; 25 µM) [nmol/mg/min]	CYP3A catalytic activity (CYP3A [3]; 12.5 µM) [nmol/mg/min]	CYP3A catalytic activity (CYP3A [3]; 25 µM) [nmol/mg/min]	p-nitrophenol glucuronidation activity (UGT [4]; 12.5 µM) [µmol/mg/min]	p-nitrophenol glucuronidation, % of Control (UGT [4]; 12.5 µM) [%]	p-nitrophenol glucuronidation activity (UGT [4]; 25 µM) [µmol/mg/min]	p-nitrophenol glucuronidation, % of Control (UGT [4]; 25 µM) [%]	p-nitrophenol glucuronidation activity (UGT [5]; 12.5 µM) [µmol/mg/min]	p-nitrophenol glucuronidation, % of Control (UGT [5]; 12.5 µM) [%]	p-nitrophenol glucuronidation activity (UGT [5]; 25 µM) [µmol/mg/min]	p-nitrophenol glucuronidation, % of Control (UGT [5]; 25 µM) [%]	p-nitrophenol glucuronidation activity (UGT [6]; 12.5 µM) [µmol/mg/min]	p-nitrophenol glucuronidation, % of Control (UGT [6]; 12.5 µM) [%]	p-nitrophenol glucuronidation activity (UGT [6]; 25 µM) [µmol/mg/min]	p-nitrophenol glucuronidation, % of Control (UGT [6]; 25 µM) [%]	other results
CC1(O)CCC(C(C)(C)O)CC1 (stereo in doubt) [Trans-terpin, trans-terpin]	0.71 ± 0.03	0.70 ± 0.03	101 ± 2.7	99.64 ± 0.93	0.59 ± 0.04	0.60 ± 0.06	0.41 ± 0.02	0.40 ± 0.03	2.44 ± 0.06	101.67 ± 0.74	2.33 ± 0.07	97.15 ± 1.80	2.87 ± 0.22	104.14 ± 9.44	2.50 ± 0.10	90.51 ± 3.63	3.90 ± 0.34	99.53 ± 0.84	3.91 ± 0.34	99.77 ± 0.60	activity at 30 min, 12.5 µM (CYP3A [2]; 12.5 µM): 98.3 ± 3.1%; activity at 30 min, 25 µM (CYP3A [2]; 25 µM): 99.3 ± 1%; activity at 30 min, 12.5 µM (CYP3A [3]; 12.5 µM): 106 ± 1.42%; activity at 30 min, 25 µM (CYP3A [3]; 25 µM): 103 ± 6.11%
CC1(C)CCCCC1 [1,1-dimethylcyclohexane]	0.73 ± 0.03	0.79 ± 0.04	98.93 ± 0.94	107 ± 1.13	0.61 ± 0.07	0.61 ± 0.10	0.38 ± 0.01	0.40 ± 0.02	2.48 ± 0.13	105.97 ± 2.23	2.19 ± 0.09	93.67 ± 1.67	2.59 ± 0.08	100.53 ± 2.39	2.58 ± 0.05	100.29 ± 3.55	4.08 ± 0.18	100.68 ± 0.60	4.03 ± 0.23	99.32 ± 0.90	activity at 30 min, 12.5 µM (CYP3A [2]; 12.5 µM): 103 ± 7.68%; activity at 30 min, 25 µM (CYP3A [2]; 25 µM): 100 ± 1.66%; activity at 30 min, 12.5 µM (CYP3A [3]; 12.5 µM): 98 ± 1.28%; activity at 30 min, 25 µM (CYP3A [3]; 25 µM): 101.8 ± 0.61%
CCCCCC12CCC(C(=O)O)(CC1)CC2 [4-pentylbicyclo[2.2.2]octane-1-carboxylic acid]	0.61 ± 0.04	0.67 ± 0.01	96.3 ± 1.91	106 ± 2.97	0.56 ± 0.05	0.55 ± 0.06	0.40 ± 0.05	0.40 ± 0.02	2.41 ± 0.06	98.73 ± 3.51	2.21 ± 0.14	90.15 ± 2.18	2.88 ± 0.13	103.95 ± 3.65	2.82 ± 0.07	101.89 ± 3.31	3.80 ± 0.27	98.44 ± 1.05	3.96 ± 0.17	102.71 ± 1.91	activity at 30 min, 12.5 µM (CYP3A [2]; 12.5 µM): 105 ± 3.3%; activity at 30 min, 25 µM (CYP3A [2]; 25 µM): 102 ± 2.42%; activity at 30 min, 12.5 µM (CYP3A [3]; 12.5 µM): 109 ± 3.58%; activity at 30 min, 25 µM (CYP3A [3]; 25 µM): 111 ± 7.26%
O=C(O)C1C2C=CC(C2)C1C(=O)O (stereo not drawn) [5-norbornen-2-endo-3-exo-dicarboxylic acid]	0.73 ± 0.04	0.77 ± 0.03			0.65 ± 0.10	0.64 ± 0.09	0.39 ± 0.03	0.38 ± 0.02	2.23 ± 0.09	107.16 ± 4.97	2.23 ± 0.10	107.42 ± 3.63	2.85 ± 0.16	96.42 ± 1.23	2.92 ± 0.19	98.52 ± 2.14	3.90 ± 0.23	100.53 ± 2.09	3.91 ± 0.20	100.86 ± 1.90	CYP3A catalytic activity, % of Control (CYP3A [1]; 12.5 µM): 96.48 ± 0.72%; CYP3A catalytic activity, % of Control (CYP3A [1]; 25 µM): 101.88 ± 0.75%; CYP3A catalytic activity, % of Control (CYP3A [2]; 12.5 µM): 107.52 ± 3.84%; CYP3A catalytic activity, % of Control (CYP3A [2]; 25 µM): 105.30 ± 2.08%; CYP3A catalytic activity, % of Control (CYP3A [3]; 12.5 µM): 98.90 ± 0.73%; CYP3A catalytic activity, % of Control (CYP3A [3]; 25 µM): 95.23 ± 3.85%
O=C(O)C1CC2C=CC1O2 (stereo not shown) [7-oxabicyclo[2.2.1]-hept-5-ene-2-carboxylic acid]	0.67 ± 0.01	0.66 ± 0.03	103 ± 2.77	103 ± 3.52	0.48 ± 0.06	0.51 ± 0.04	0.41 ± 0.02	0.40 ± 0.02	3.46 ± 0.04	101.00 ± 0.64	3.26 ± 0.09	95.53 ± 4.50	2.87 ± 0.07	102.50 ± 2.98	2.75 ± 0.06	98.20 ± 1.42	4.02 ± 0.09	99.13 ± 1.29	3.99 ± 0.09	98.49 ± 0.83	activity at 30 min, 12.5 µM (CYP3A [2]; 12.5 µM): 107 ± 5.87%; activity at 30 min, 25 µM (CYP3A [2]; 25 µM): 114 ± 3.17%; activity at 30 min, 12.5 µM (CYP3A [3]; 12.5 µM): 106 ± 7.47%; activity at 30 min, 25 µM (CYP3A [3]; 25 µM): 103 ± 1.09%
OC(Cn1cncn1)(Cn1cncn1)c1ccc(F)cc1F [fluconazole, reference compound]																					decrease of hepatic p-nitrophenol glucuronidation (UGT [4]; 2.5 mM, positive control): 20 percent control
